Earlier results, collected in patent US20030124075A1, “Use of a composition containing at least one oxidation-sensitive hydrophilic active principle and at least one N-vinylimidazole polymer or copolymer” (L'OREAL, priority 2001, published 2003).

Legend:
tyrosinase = biological target: T1, tyrosinase (Homo sapiens, UniProt P14679); conditions: J. Soc. Cosmet. Chem., 42, 1991
T1 sequence (P14679 19-529): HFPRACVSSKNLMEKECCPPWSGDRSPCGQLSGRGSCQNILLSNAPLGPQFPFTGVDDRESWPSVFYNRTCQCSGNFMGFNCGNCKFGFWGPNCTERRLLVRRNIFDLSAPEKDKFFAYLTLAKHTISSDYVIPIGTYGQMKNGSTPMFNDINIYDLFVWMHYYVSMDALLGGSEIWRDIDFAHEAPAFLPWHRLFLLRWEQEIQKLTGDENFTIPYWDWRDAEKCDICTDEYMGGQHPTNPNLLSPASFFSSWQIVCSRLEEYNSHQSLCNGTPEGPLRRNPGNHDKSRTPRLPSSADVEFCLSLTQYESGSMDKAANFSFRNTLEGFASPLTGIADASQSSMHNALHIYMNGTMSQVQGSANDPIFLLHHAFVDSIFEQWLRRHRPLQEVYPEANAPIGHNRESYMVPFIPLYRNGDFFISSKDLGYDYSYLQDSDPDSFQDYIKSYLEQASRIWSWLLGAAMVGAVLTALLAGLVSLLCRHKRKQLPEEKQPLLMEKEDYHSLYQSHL

melanocytes = conditions: Pigment. Cell. Res., 13, 2000
[1] = J. Am. Acad. Dermatol., 1996, 34, 29-33

inhibiting effect on tyrosinase (tyrosinase)	bioavailability [1]	Structure (SMILES)	dendricity of melanocytes (melanocytes)
has been demonstrated		O=C1O[C@H]([C@@H](O)CO)C(O)=C1O [ascorbic acid]	
	very low	O=C1O[C@H]([C@@H](O)CO)C([O-])=C1OP(=O)([O-])[O-].O=C1O[C@H]([C@@H](O)CO)C([O-])=C1OP(=O)([O-])[O-].[Mg+2].[Mg+2].[Mg+2] [magnesium ascorbyl phosphate]	can reduce the dendricity of melanocytes
